Test results published in patent publication US20230241257A1, “BIOTIN-MODIFIED DIMER AND USE THEREOF” (THE UNIVERSITY OF TOKYO, priority 2020, published 2023).

Assays:
[1] = tested on: human stomach cancer cells (MKN-45); experiment: Experiment 5: pharmacokinetics of Cupid-scFv antibody (24 h before)+^211At-psyche-BR in MKN-45 cancer-bearing mouse models; type: in vivo, mice (BALB/cSlc nu/nu)
Method: The present experiment used human stomach cancer cells (MKN-45) expressing carcinoembryonic antigen (CEA). 9-week-old male immunodeficient mice (BALB/cSlc nu/nu) were used. MKN-45 cells (1×10^7/0.1 ml) were transplanted into the mice's subcutis on the right shoulder dorsal side to produce cancer-bearing mouse models. The mice were divided into four groups when the tumor volume became a predetermined size (on Day 13 after the transplantation). The Cupid-scFv antibody was administered in 100 μmol/0.1 ml via the caudal vein of each mouse. Twenty-four hours after administration of the Cupid-scFv antibody, ^211At-psyche-BR (about 0.25 MBq/100 ml) was administered via the caudal vein of each mouse. One minute, 1 hour, 6 hours, and 24 hours after administration of the ^211At-psyche-BR, the mice were euthanized by collecting whole blood from the heart of each mouse under isoflurane anesthesia, and tumor tissues and normal tissues/organs were then excised. Normal tissues/organs: skin (lower right limb), muscle (right gastrocnemius muscle), heart, lung, spleen, pancreas, white fat (upper portion of right side testis), testis (both sides), stomach, stomach contents, small intestine (including contents), large intestine (including contents), liver, brown fat (interscapular), submandibular gland, thyroid gland (together with trachea), bone (right femur), cerebrum, eyeballs (both sides), bladder, and urine; the remaining residues were divided into three equal parts, and the three equal parts were defined to be residue-1, residue-2, and residue-3. After that, the weights of blood, plasma, urine, tumor, and normal tissues/organs were measured, and the radioactivity thereof was then measured using a γ counter. The amounts of the ^211At-psyche-BR (radioactivity) accumulated in the blood, plasma, urine, tumor, and normal tissues/organs were calculated. That is to say, the rates (% ID/g) of the ^211At-psyche-BR accumulated per unit weight (g) of the blood, plasma, urine, tumor, and normal tissues/organs, in the administered ^211At-psyche-BR were shown. Regarding accumulation of the ^211At-psyche-BR in the thyroid gland, since the weight of the thyroid gland could not be precisely measured, it was shown that the rate (% ID) of the ^211At-psyche-BR accumulated in the thyroid gland in the administered ^211At-psyche-BR.

[2] = tested on: human stomach cancer cells (MKN-45); experiment: Experiment 10: therapeutic effects and toxicity of Cupid-scFv antibody (24 h before)+^211At-psyche-B in MKN-45 cancer-bearing mouse models; type: in vivo, mice (BALB/cSlc nu/nu)
Method: The present experiment used human stomach cancer cells (MKN-45) expressing carcinoembryonic antigen (CEA). 9-week-old male immunodeficient mice (BALB/cSlc nu/nu) were used. MKN-45 cells (5×10^6/0.1 ml) were transplanted into the mice's subcutis on the right shoulder dorsal side to produce cancer-bearing mouse models. At the time point in which the tumor volume became a predetermined size (on Day 8 after the transplantation), the mice were divided into six groups, which were for use in the evaluation of the therapeutic effects, and a biodistribution group (6 hours) of cancer-bearing mouse models having this tumor size. The Cupid-scFv antibody was administered 100 μmol/0.1 ml via the caudal vein of each mouse. Twenty-four hours after administration of the Cupid-scFv antibody, ^211At-psyche-B was administered via the caudal vein of each mouse in an amount of 3.70 MBq, 1.85 MBq, 1.11 MBq, or 0.37 MBq.
In the present experiment, a 5.55 MBq administration group was not established. To a control group, a solvent for the ^211At-psyche-B was administered (solvent group). A group to which only cupid was administered was defined as a Cupid group. The mice's general states were observed and recorded immediately after administration of the ^211At-psyche-B and at 3 hours after the administration. Moreover, until Day 14, after administration of the ^211At-psyche-B, observation of the general states and the measurement of the body weight was carried out every day. After Day 14 of the administration of the […], observation of the general states and the measurement of the body weight was carried out every other day. The tumor size was measured every other day after the treatment with the ^211At-psyche-B. On Day 36, after the treatment with the ^211At-psyche-B, observation of the general states, the measurement of the body weight, and the measurement of the tumor size were carried out, and the mice were then euthanized by collecting whole blood from the heart of each mouse under isoflurane anesthesia. Tumor tissues and major tissues/organs were excised from the mice, weighed, and immobilized with formalin.

N=C1N[C@H]2[C@H](CS[C@H]2CCCCNC(=O)CCCCCC(=O)Nc2cc(NC(=O)CCCCCC(=O)NCCCC[C@@H]3SC[C@@H]4NC(=N)N[C@@H]43)cc(C(=O)NCCOCCOCCNC(=O)c3cccc([211At])c3)c2)N1 [^211At-psyche-BR]
Accumulation in the kidney ([1]; after 1 minute): 28.6±1.3 % ID/g | Accumulation in the liver ([1]; after 1 minute): 13.3±2.2 % ID/g | Accumulation in the lung ([1]; after 1 minute): 14.4±1.6 % ID/g | Accumulation in the spleen ([1]; after 1 minute): 4.7±0.4 % ID/g | Accumulation in the tumor ([1]; after 1 minute): 0.6±0.1 % ID/g | Clearance from the blood ([1]; after 1 minute): 46.9±1.1 % ID/g | tumor-to-blood ratio ([1]; after 1 minute): 0.01±0.00 | tumor-to-muscle ratio ([1]; after 1 minute): 1.22±0.05 | Accumulation in the kidney ([1]; after 1 hour): 17.1±1.4 % ID/g | Accumulation in the liver ([1]; after 1 hour): 11.4±0.7 % ID/g | Accumulation in the lung ([1]; after 1 hour): 13.2±2.2 % ID/g | Accumulation in the spleen ([1]; after 1 hour): 7.1±0.2 % ID/g | Accumulation in the tumor ([1]; after 1 hour): 3.1±0.7 % ID/g | Clearance from the blood ([1]; after 1 hour): 39.5±5.2 % ID/g | tumor-to-blood ratio ([1]; after 1 hour): 0.08±0.02 | tumor-to-muscle ratio ([1]; after 1 hour): 5.11±1.81 | Accumulation in the kidney ([1]; after 6 hours): 9.5±0.2 % ID/g | Accumulation in the liver ([1]; after 6 hours): 12.8±0.2 % ID/g | Accumulation in the lung ([1]; after 6 hours): 9.1±1.0 % ID/g | Accumulation in the spleen ([1]; after 6 hours): 8.4±1.0 % ID/g | Accumulation in the tumor ([1]; after 6 hours): 9.3±0.6 % ID/g | Clearance from the blood ([1]; after 6 hours): 25.3±1.0 % ID/g | tumor-to-blood ratio ([1]; after 6 hours): 0.7±0.02 | tumor-to-muscle ratio ([1]; after 6 hours): 12.80±1.86 | Accumulation in the thyroid gland ([1]; after 24 h): 0.15±0.05 % ID | Accumulation in the kidney ([1]; after 24 hours): 5.4±0.5% | Accumulation in the liver ([1]; after 24 hours): 7.8±0.9% | Accumulation in the lung ([1]; after 24 hours): 5.3±0.1% | Accumulation in the spleen ([1]; after 24 hours): 5.5±1.1% | Accumulation in the tumor ([1]; after 24 hours): 18.4±2.5% | Clearance from the blood ([1]; after 24 hours): 8.3±0.5 % ID/g | amount administered excreted (blood) ([1]; after 24 hours): about 92% | tumor-to-blood ratio ([1]; after 24 hours): 2.23±0.41 | tumor-to-muscle ratio ([1]; after 24 hours): 25.07±3.68

N=C1N[C@H]2[C@H](CS[C@H]2CCCCC(=O)NCCCCCC(=O)Nc2cc(NC(=O)CCCCCNC(=O)CCCC[C@@H]3SC[C@@H]4NC(=N)N[C@@H]43)cc(C(=O)NCCOCCOCCNC(=O)c3cccc([211At])c3)c2)N1 [^211At-psyche-B]
body weight reduction ([2]; 0.37 MBq, before Day 10): body weight reduction was lower than that in the 1.11 MBq | body weight reduction ([2]; 0.37 MBq, on and after Day 10): the body weight reduction was the same as in the 1.11 MBq | tumor growth compared with the control group ([2]; 0.37 MBq, until Day 10): tumor growth was suppressed | body weight recovery ([2]; 1.11 MBq, after Day 5): the body weight was not recovered to the same level as the control groups | body weight ([2]; 1.11 MBq, until Day 5): the body weight was slightly reduced | tumor growth compared with the control group ([2]; 1.11 MBq, until Day 10): tumor growth was suppressed | tumor growth compared with the control group ([2]; 1.85, 1.11 and 0.37 MBq, after Day 10): the tumor growth was suppressed in an amount-dependent manner | general states and body weight ([2]; 1.85 MBq, Day 5): general states and body weight reduction became significantly severe | mortality ([2]; 1.85 MBq, Day 10): one mouse died | recovery of general states ([2]; 1.85 MBq, Day 26): the mice were completely recovered | skin findings ([2]; 1.85 MBq, on and after Day 6 until Day 12): red spots were dispersed on the skin | tumor growth compared with the control group ([2]; 1.85 MBq, until Day 10): tumor growth was suppressed | general states and body weight ([2]; 3.70 MBq, Day 5, urgent euthanasia): general states and body weight reduction became severe
